± gives the expanded uncertainty stated by the source.
Test: xn = mol fraction of the nth substance listed
Details: 101 kPa, Liquid

Cc1cc(C)cc(C)c1 [1,3,5-trimethylbenzene] + Cc1c(C)c2c(c(C)c1O)CCC(C)(CCCC(C)CCCC(C)CCCC(C)C)O2
x2 = 0
Details	viscosity [mPa·s]
278.15 K	0.85 ± 0.02
284.15 K	0.8 ± 0.02
290.15 K	0.75 ± 0.02
296.15 K	0.63 ± 0.02
302.15 K	0.57 ± 0.02
308.15 K	0.53 ± 0.01
314.15 K	0.49 ± 0.01
320.15 K	0.46 ± 0.01
325.15 K	0.44 ± 0.01
330.15 K	0.41 ± 0.01
335.15 K	0.4 ± 0.01
340.15 K	0.39 ± 0.01
345.15 K	0.35 ± 0.01
350.15 K	0.34 ± 0.01

Cc1c(C)c2c(c(C)c1O)CCC(C)(CCCC(C)CCCC(C)CCCC(C)C)O2 (stereo not drawn) [dl-α-tocopherol] + CCCCCc1ccc(C2CCC(CCC)CC2)cc1
x1 = 1
Details	viscosity [mPa·s]
278.15 K	37128 ± 10000
284.15 K	15242 ± 3600
290.15 K	6380 ± 1300
296.15 K	3017.5 ± 510
302.15 K	1531 ± 220
308.15 K	814.81 ± 94
314.15 K	454.58 ± 42
320.15 K	283.56 ± 21
325.15 K	187.51 ± 11
330.15 K	129.2 ± 5.7
335.15 K	92.65 ± 3
340.15 K	67.32 ± 1.6
345.15 K	49.98 ± 1.1
350.15 K	37.4 ± 0.85

Cc1c(C)c2c(c(C)c1O)CCC(C)(CCCC(C)CCCC(C)CCCC(C)C)O2 (stereo not drawn) [dl-α-tocopherol] + Cc1cc(C)cc(C)c1
viscosity [mPa·s]
Details	x1 = 0.2025	x1 = 0.4036	x1 = 0.5972	x1 = 0.7955	x1 = 1
278.15 K	6.85 ± 1.6	148.08 ± 15	1253.6 ± 170	5944.7 ± 1200	37128 ± 10000
284.15 K	5.55 ± 0.11	92.32 ± 3.1	658.51 ± 71	3037.6 ± 510	15242 ± 3600
290.15 K	4.6 ± 0.08	56.98 ± 1.3	357.26 ± 30	1533.2 ± 220	6380.1 ± 1300
296.15 K	3.88 ± 0.07	38 ± 0.82	210.82 ± 13	819.67 ± 95	3017.5 ± 510
302.15 K	3.24 ± 0.06	26.65 ± 0.55	130.99 ± 5.8	477.36 ± 45	1531 ± 220
308.15 K	2.94 ± 0.05	19.06 ± 0.38	83.96 ± 2.4	276.12 ± 20	814.81 ± 94
314.15 K	2.39 ± 0.04	14.43 ± 0.27	55.52 ± 1.1	173.98 ± 9.5	454.58 ± 42
320.15 K	2.14 ± 0.04	11.42 ± 0.21	40.57 ± 0.81	116 ± 4.6	283.56 ± 21
325.15 K	1.96 ± 0.04	9.28 ± 0.17	30.55 ± 0.62	82.01 ± 2.3	187.51 ± 11
330.15 K	1.83 ± 0.03	7.75 ± 0.14	23.73 ± 0.46	60.1 ± 1.2	129.2 ± 5.7
335.15 K	1.72 ± 0.03	6.56 ± 0.12	18.89 ± 0.36	45.63 ± 0.95	92.65 ± 3
340.15 K	1.65 ± 0.03	5.59 ± 0.1	15.33 ± 0.29	34.46 ± 0.72	67.32 ± 1.6
345.15 K	1.52 ± 0.03	4.81 ± 0.09	12.33 ± 0.23	26.47 ± 0.53	49.98 ± 1.1
350.15 K	1.37 ± 0.03	4.25 ± 0.08	10.5 ± 0.18	21.44 ± 0.4	37.4 ± 0.85

Reference: the NIST ThermoML archive (doi:10.1021/je800439e)
